Entries after “also recorded” stand apart in the source; their conditions may differ. Positions of bridges follow the written chain, without caps; N, C: chain ends. No end group written: not given here.
How the values were obtained:
NRVCMs [1] = assay: Pro-hypertrophic effects of 2-HG on NRVCMs (cell size, ANP and BNP mRNA); type: cell-based, rat; details: 2 days
Procedure: (§1) RNA was extracted and purified from frozen mouse heart using Trizol reagent (QIAzol lysis reagent, Qiagen) following manufacturer's instructions, followed by DnaseI digestion. Nucleic acid yields were analyzed photometrically (NanoDrop ND-1000, Spectrophotometer). 1.5 μg RNA was reverse transcribed into cDNA using Superscript III Kit (Invitrogen) and oligo(dT) Primers. cDNA synthesis was followed by RNA digestion using RNase H. qRT-PCR was executed using iTaq Universal SYBR Green Supermix (Thermo Fisher Scientific) and CFX96 Touch Real-Time PCR detection system (Bio Rad) as previously described (Doehner 2014). The following primers used for cDNA relative quantification are listed below.
NRVCMs were isolated and prepared as published previously (Rangrez et al. 2013). […]
Cardiomyocytes were fixed with 4% PFA and blocked in 2.5% BSA in PBS including 0.1% Triton. […] Florescence graphs were collected with Keyence fluorescence microscope BZ-9000 at ×10 magnification (objective: CFI Plan Apochromat λ×10; Nikon) and BZ-II viewer software (Keyence, version 2.1). […] HybridCellCount module and fluorescence intensity singe-extraction mode were applied for cell size measurement.

NRVCMs [2] = assay: Mitochondrial membrane potential (TMRE) in NRVCMs; type: cell-based, rat; details: L-2HG treatment, live cell monitoring
Procedure: In additional experiments, […] were transduced with AAV6 vectors, either overexpressing L2HGDH or luciferase (Luc) as control at the M01=10^5 vp/cell. Three days after transduction L-2HG (Sigma-Aldrich) was applied to cell culture medium to a final concentration of 2 mM. Cells were harvested 2 days after treatment. […] were maintained in μ-Slide 8-wells, (Ibidi), suitable for live cell imaging. Cells were incubated with tetramethylrhodamine (TMRE) at 37° C. to a concentration of 50 nmol/L for 30 min. Afterwards, cells were washed with warm PBS and media was replaced with FluoroBrite DMEM (Thermo Fischer Scientific). Cells were imaged within 30 min (Ex: 549; Em: 574 nm).

Tet2 = molecular target: T1, Tet2 (Rattus norvegicus, UniProt A0ABK0LWH5); assay: Assessment of hydroxymethylation status of cytosine (5mC-Hydroxylase TET activity kit) after 2-HG treatment; type: cell-based; details: nuclear extracts of NRVCMs after 2-HG treatment
T1 construct: nuclear extracts isolated from NRVCMs; endogenous in cells; host or cells: primary neonatal rat ventricular cardiomyocytes (NRVCMs), nuclear extract
T1 sequence (A0ABK0LWH5 1-1959): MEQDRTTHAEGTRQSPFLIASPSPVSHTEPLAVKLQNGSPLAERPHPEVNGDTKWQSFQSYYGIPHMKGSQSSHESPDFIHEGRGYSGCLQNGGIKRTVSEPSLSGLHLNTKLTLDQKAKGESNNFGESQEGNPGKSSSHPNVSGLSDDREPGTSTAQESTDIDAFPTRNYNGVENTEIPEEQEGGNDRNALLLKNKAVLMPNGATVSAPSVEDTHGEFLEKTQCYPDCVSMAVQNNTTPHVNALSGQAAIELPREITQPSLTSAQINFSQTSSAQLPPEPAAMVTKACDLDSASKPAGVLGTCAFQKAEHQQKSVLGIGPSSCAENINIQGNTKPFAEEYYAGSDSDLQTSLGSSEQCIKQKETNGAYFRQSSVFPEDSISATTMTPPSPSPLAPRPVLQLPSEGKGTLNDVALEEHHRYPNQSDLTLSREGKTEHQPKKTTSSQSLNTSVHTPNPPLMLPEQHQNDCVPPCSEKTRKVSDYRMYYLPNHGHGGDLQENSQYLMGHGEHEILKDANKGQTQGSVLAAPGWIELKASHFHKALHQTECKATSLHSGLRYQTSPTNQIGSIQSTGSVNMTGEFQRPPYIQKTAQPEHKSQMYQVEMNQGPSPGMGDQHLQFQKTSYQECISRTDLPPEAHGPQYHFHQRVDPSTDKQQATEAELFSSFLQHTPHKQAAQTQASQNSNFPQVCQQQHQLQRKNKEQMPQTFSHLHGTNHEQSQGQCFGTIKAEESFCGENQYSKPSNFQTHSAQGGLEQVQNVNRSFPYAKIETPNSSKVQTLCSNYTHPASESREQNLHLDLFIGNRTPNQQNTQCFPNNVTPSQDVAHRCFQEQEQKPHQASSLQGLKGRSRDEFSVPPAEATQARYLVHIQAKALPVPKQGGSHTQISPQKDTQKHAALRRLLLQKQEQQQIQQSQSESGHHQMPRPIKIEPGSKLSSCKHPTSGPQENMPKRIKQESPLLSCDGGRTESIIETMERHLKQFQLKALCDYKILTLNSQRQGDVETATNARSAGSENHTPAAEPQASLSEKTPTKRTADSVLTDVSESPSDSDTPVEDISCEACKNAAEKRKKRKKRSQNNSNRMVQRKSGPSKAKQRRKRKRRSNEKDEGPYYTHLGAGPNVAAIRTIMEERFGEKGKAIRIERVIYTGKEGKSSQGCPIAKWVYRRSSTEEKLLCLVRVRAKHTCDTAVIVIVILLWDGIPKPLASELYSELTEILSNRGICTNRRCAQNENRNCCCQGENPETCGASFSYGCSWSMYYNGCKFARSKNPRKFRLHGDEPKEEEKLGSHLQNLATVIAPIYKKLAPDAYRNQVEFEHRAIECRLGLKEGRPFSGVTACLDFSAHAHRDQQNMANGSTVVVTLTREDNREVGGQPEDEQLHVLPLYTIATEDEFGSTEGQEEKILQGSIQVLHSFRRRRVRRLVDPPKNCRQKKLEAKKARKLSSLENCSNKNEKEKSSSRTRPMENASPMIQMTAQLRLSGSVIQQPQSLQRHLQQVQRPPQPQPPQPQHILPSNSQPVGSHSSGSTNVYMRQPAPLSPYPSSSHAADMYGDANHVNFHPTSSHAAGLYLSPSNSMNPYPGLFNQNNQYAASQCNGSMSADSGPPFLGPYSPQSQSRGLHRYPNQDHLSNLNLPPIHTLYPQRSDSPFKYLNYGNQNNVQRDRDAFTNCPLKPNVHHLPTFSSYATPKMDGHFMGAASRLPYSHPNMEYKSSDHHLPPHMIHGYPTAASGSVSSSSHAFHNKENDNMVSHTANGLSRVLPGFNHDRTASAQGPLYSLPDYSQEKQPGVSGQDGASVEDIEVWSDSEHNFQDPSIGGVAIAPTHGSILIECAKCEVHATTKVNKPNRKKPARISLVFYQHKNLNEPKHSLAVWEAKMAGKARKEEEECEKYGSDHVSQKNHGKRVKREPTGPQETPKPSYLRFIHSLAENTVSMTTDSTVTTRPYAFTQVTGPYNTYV
Procedure: Epigenase 5mC-Hydroxylase TET Activity/Inhibition Assay Kit was employed to analyse Tet2 activity in nuclear extracts isolated from NRVCMs after 2-HG treatment. Cell fractionation was performed according to standard REAP protocol (Suzuki et al. 2010). The measurement of hydroxymethylcytosine (hmC) amount was performed according to manufacturer's instructions. 50 μg of nuclear protein was used per sample.

[3] = tested on: primary rat neonatal fibroblasts; assay: L-2HG on fibroblast proliferation and collagen synthesis; type: cell-based; details: disodium salt; for collagen3a1 expression: Western blot, non-treated fibroblasts as control; for fibroblast proliferation, Ki67-positive nuclei: immunocytochemistry
NRVCMs [4] = assay: 2HG induced cardiomyocyte hypertrophy in NRVCMs with AAV6 transduction; type: cell-based, rat; details: L-2HG 2 mM, 2 days
Procedure: as §1
In additional experiments, NRVCMs were transduced with AAV6 vectors, either overexpressing L2HGDH or luciferase (Luc) as control at the M01=10^5 vp/cell. Three days after transduction L-2HG (Sigma-Aldrich) was applied to cell culture medium to a final concentration of 2 mM. Cells were harvested 2 days after treatment.
Cardiomyocytes were fixed with 4% PFA and blocked in 2.5% BSA in PBS including 0.1% Triton. Next NRVCMs were incubated with monoclonal mouse anti-α-actinin (1:200 in 2.5% BSA in PBS; Sigma) antibody for 1 hour at room temperature. After washing with PBS, secondary antibody conjugated to Alexa Fluor-546 (Thermo Fisher Scientific) together with nuclear stain DAPI (Sigma-Aldrich) at a dilution of 1:200 or 1:1000 respectively in 2.5% BSA in PBS were applied and incubated for 1 h. Afterwards, coverslips were mounted using FluorPreserve reagent (Merck Millipore). Florescence graphs were collected with Keyence fluorescence microscope BZ-9000 at ×10 magnification (objective: CFI Plan Apochromat λ×10; Nikon) and BZ-II viewer software (Keyence, version 2.1). 10 pictures were taken from each coverslip. BZ-II Analyzer (version 2.1) were used to process and analyze the graphs. HybridCellCount module and fluorescence intensity singe-extraction mode were applied for cell size measurement.

NRVCMs [5] = assay: Mitochondrial membrane potential (JC-1) in NRVCMs; type: cell-based, rat; details: 2HG treatment
Procedure: In additional experiments, […] were transduced with AAV6 vectors, either overexpressing L2HGDH or luciferase (Luc) as control at the M01=10^5 vp/cell. Three days after transduction L-2HG (Sigma-Aldrich) was applied to cell culture medium to a final concentration of 2 mM. Cells were harvested 2 days after treatment. Similarly, JC-1 was applied to cell culture medium to a concentration of 1 μmol/L and cells were incubated at 37° C. for 30 min. After washing with warm PBS, cells were imaged in FluoroBrite DMEM (J-monomers Ex:485; Em:535/J-aggregates Ex: 530; Em:590) using a confocal microscope (LSM800, Zeiss). Mean fluorescence intensity was analysed using ImageJ.

L2HGDH = assay: Gene expression analysis of L2HGDH in Ang-II infusion mice model; type: in vivo; details: Ang-II infusion mice vs controls
Procedure: as §1

[6] = tested on: primary neonatal rat ventricular cardiomyocytes (NRVCMs); assay: Measurement of mitochondrial ROS production with MitoSOX in NRVCM; type: cell-based; details: ET-1 stimulation 200 μmol/l for 24 hours, compared to control
Procedure: NRVCMs were isolated and prepared as published previously (Rangrez et al. 2013). Briefly, left ventricles from 1-2 days old Wistar rats (Charles River) were harvested and cut in pH 7.4 buffer containing 120 mmol/liter NaCl, 20 mmol/liter Hepes, 8 mmol/liter NaH2PO4, 6 mmol/liter glucose, 5 mmol/liter KCl, and 0.8 mmol/liter MgSO4. The separation of single cardiomyocyte from cut tissue mass, was achieved by enzymatic digestion with 0.6 mg/ml pancreatin (Sigma) at 37° C. and 0.5 mg/ml collagenase type 11 (Worthington). Cell suspension was filtered by a cell strainer. Newborn calf serum was added to stop enzymatic digestion. In order to separate cardiomyocytes from fibroblasts, a Percoll gradient (GE Healthcare) centrifugation step was performed. Afterwards, cardiomyocytes were cultured in DMEM medium containing 10% fetal calf serum (FCS), 2 mM penicillin/streptomycin, and L-glutamine (PAA Laboratories). […]
MitoSOX was applied to culture medium to a final concentration of 0.5 μM and cells were incubated for 15 minutes at 37° C. […] The fluorescence (red) was detected (Ex: 400 nm, Em at 590 nm) using confocal microscopy (Zeiss LSM 800). Mean fluorescence intensity (MFI) was calculated from the total fluorescence intensity detected from viable cells and divided by the number of cells using the software generated by Image J software (NIH, Bethesda, Md., USA).

## O=C([O-])CC[C@H](O)C(=O)[O-].[Na+].[Na+] [2-HG, L-α-Hydroxyglutaric acid disodium salt]
NRVCMs [1]; 2-HG 2 mM in serum-free medium, vs non-treated cells
  cell size: dramatic increase
NRVCMs [1]; 2-HG 2 mM
  fetal gene program, ANP and BNP mRNA: marked increase
NRVCMs [2]
  TMRE fluorescence (mitochondrial membrane potential): time-dependent decrease
Tet2
  epigenetic 5-hmC deposition: increased
[3]
  collagen3a1 expression: induces
  fibroblast proliferation, Ki67-positive nuclei: induces
[3]; listed as L-2HG
  collagen3a1 expression: significant increased
  fibroblast proliferation, Ki67-positive nuclei: dramatic increased
NRVCMs [4]
  cell size: increased
  mRNA levels of pro-hypertrophic markers: increased
NRVCMs [4]; disodium salt
  induction of hypertrophy in NRVCMs: marked induction; also recorded: pro-hypertrophic
NRVCMs [5]
  JC-1 green/red mean fluorescence intensity (mitochondrial polarization): mitochondrial depolarization

## Ang-II: infused to give the Ang-II infusion mice model of cardiac hypertrophy (DRVYIHPF; Angiotensin-2; UniProt P01019 25-32, looked up)
L2HGDH
  down-regulation in L2HGDH mRNA level: 35%

## ET-1: hypertrophic stimulation applied to NRVCMs in serum-free medium (CSCSSLMDKECVYFCHLDIIW; disulfide 1-15, 3-11; ends not checked; UniProt P05305 53-73, looked up)
[6]
  MitoSOX fluorescence level (ROS production): significant increase
